The values that follow come from US20060182775A1, “Insect repellent” (priority 2005, published 2006).

For series [1] the following is noted: human, in vivo.
The conditions of series [2]: cited from earlier work.

Regarding citronella oil, the “burning and/or irritation of skin” value in series [1] is given as “caused burning and/or irritation”.
For the compound `CCN(CC)C(=O)c1cccc(C)c1` [DEET, n,n-diethyl-m-toluamide], in series [2] (in vivo), the “absorption through the skin” value is “readily absorbed through the skin and enters into the blood stream”; the “effect on the nervous system” value was “adversely affect the nervous system”. Besides, the seizures and death result in series [2] (some individuals) is “caused seizures and even death in some individuals”.
